From paper PMC7377239, “Cardiovascular Effects of Polychlorinated Biphenyls and Their Major Metabolites” (Environmental Health Perspectives, 2020)
Read-outs that look alike come from different tables or passages of the source.

Tested on: iCell cardiomyocytes (human iPSC-derived cardiomyocytes)
Assay: Intracellular Ca2+ flux / beating parameters in iCell cardiomyocytes (FLIPR tetra), 90 min or 24 h
Assay type: cell-based
Settings: for activity at 0.01 µM / activity at 0.1 µM / activity at 1 µM / activity at 10 µM / activity at 100 µM: Homo sapiens, Cardiomyocyte, 0.00 µM = 100.00; for activity at 0.1 µM: 0.10 µM
Procedure, shortened: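 Gelatin-plated iCell cardiomyocytes (5,000/well) were dye-loaded for 2 h at 37 °C, then exposed for 90 min or 24 h to PCBs/metabolites (5× plates at 0.05–500 µM; 0.5% DMSO final) in triplicate. Ca2+ flux was read for 100 s at 8 Hz and 37 °C. Peak height, frequency, spacing CV and decay/rise ratio were vehicle-normalized and fitted with a four-parameter logistic model, with POD set at 1 SD of vehicle.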

[1] = 1.5 h, read-out: cm.amp.avg.90min
[2] = 1.5 h, read-out: cm.amp.cv.90min
[3] = 1.5 h, read-out: cm.decay.rise.90min
[4] = 1.5 h, read-out: cm.spacing.cv.90min
[5] = 24 h, read-out: cm.amp.avg.24hrs
[6] = 24 h, read-out: cm.amp.cv.24hrs
[7] = 24 h, read-out: cm.decay.rise.24hrs
[8] = 24 h, read-out: cm.spacing.cv.24hrs

For `COc1ccc(-c2ccc(Cl)cc2)cc1` [4'-OMe PCB3], the activity at 0.01 µM [1] was 96.9%, the activity at 0.01 µM [2] was 88.9% and the activity at 0.01 µM (1.5 h, read-out: cm.bpm.90min) was 103%. It also gave an activity at 0.01 µM [3] of 99.4%, an activity at 0.01 µM [4] of 117% and an activity at 0.1 µM [1] of 93.5%. The activity at 0.1 µM [2] was 102%, the activity at 0.1 µM (1.5 h, read-out: cm.bpm.90min) was 100% and the activity at 0.1 µM [3] was 102%. It also gave an activity at 0.1 µM [4] of 99.4%, an activity at 1 µM [1] of 106% and an activity at 1 µM [2] of 117%. For the same molecule, the activity at 1 µM (1.5 h, read-out: cm.bpm.90min) was 96.5%, the activity at 1 µM [3] was 95% and the activity at 1 µM [4] was 92%. For the same molecule, the activity at 10 µM [1] was 103%, the activity at 10 µM [2] was 96% and the activity at 10 µM (1.5 h, read-out: cm.bpm.90min) was 107%. The activity at 10 µM [3] was 95.2%, the activity at 10 µM [4] was 96.4% and the activity at 100 µM [1] was 83.2%. For the same molecule, the activity at 100 µM [2] was 175%, the activity at 100 µM (1.5 h, read-out: cm.bpm.90min) was 208% and the activity at 100 µM [3] was 94.6%. It also gave an activity at 100 µM [4] of 140%, an activity at 0.01 µM [5] of 135% and an activity at 0.01 µM [6] of 92.2%. The activity at 0.01 µM (24 h, read-out: cm.bpm.24hrs) was 111%, the activity at 0.01 µM [7] was 98% and the activity at 0.01 µM [8] was 116%. The activity at 0.1 µM [5] was 30.6%, the activity at 0.1 µM [6] was 60.1% and the activity at 0.1 µM (24 h, read-out: cm.bpm.24hrs) was 50.6%. For the same molecule, the activity at 0.1 µM [7] was 49%, the activity at 0.1 µM [8] was 49.7% and the activity at 1 µM [5] was 81.2%. For the same molecule, the activity at 1 µM [6] was 110%, the activity at 1 µM (24 h, read-out: cm.bpm.24hrs) was 95.5% and the activity at 1 µM [7] was 98.7%. It also gave an activity at 1 µM [8] of 85.6%, an activity at 10 µM [5] of 94.7% and an activity at 10 µM [6] of 93.1%. For the same molecule, the activity at 10 µM (24 h, read-out: cm.bpm.24hrs) was 119%, the activity at 10 µM [7] was 90.5% and the activity at 10 µM [8] was 112%. It also gave an activity at 100 µM [5] of 30.7%, an activity at 100 µM [6] of 58% and an activity at 100 µM (24 h, read-out: cm.bpm.24hrs) of 81.2%. The activity at 100 µM [7] was 38.5% and the activity at 100 µM [8] was 76.1%.

For `Clc1ccc(-c2ccccc2)cc1` [PCB3], the activity at 0.01 µM [1] was 98.5%, the activity at 0.01 µM [2] was 109% and the activity at 0.01 µM (1.5 h, read-out: cm.bpm.90min) was 95.3%. It also gave an activity at 0.01 µM [3] of 98.9%, an activity at 0.01 µM [4] of 124% and an activity at 0.1 µM [1] of 104%. It also gave an activity at 0.1 µM [2] of 102%, an activity at 0.1 µM (1.5 h, read-out: cm.bpm.90min) of 96.5% and an activity at 0.1 µM [3] of 99.5%. For the same molecule, the activity at 0.1 µM [4] was 116%, the activity at 1 µM [1] was 99.9% and the activity at 1 µM [2] was 123%. For the same molecule, the activity at 1 µM (1.5 h, read-out: cm.bpm.90min) was 96.5%, the activity at 1 µM [3] was 96.1% and the activity at 1 µM [4] was 130%. It also gave an activity at 10 µM [1] of 99.5%, an activity at 10 µM [2] of 115% and an activity at 10 µM (1.5 h, read-out: cm.bpm.90min) of 103%. For the same molecule, the activity at 10 µM [3] was 98.8%, the activity at 10 µM [4] was 121% and the activity at 100 µM [1] was 81.2%. For the same molecule, the activity at 100 µM [2] was 180%, the activity at 100 µM (1.5 h, read-out: cm.bpm.90min) was 193% and the activity at 100 µM [3] was 99.9%. For the same molecule, the activity at 100 µM [4] was 133%, the activity at 0.01 µM [5] was 91.3% and the activity at 0.01 µM [6] was 119%. For the same molecule, the activity at 0.01 µM (24 h, read-out: cm.bpm.24hrs) was 103%, the activity at 0.01 µM [7] was 98.3% and the activity at 0.01 µM [8] was 138%. It also gave an activity at 0.1 µM [5] of 87.1%, an activity at 0.1 µM [6] of 41.5% and an activity at 0.1 µM (24 h, read-out: cm.bpm.24hrs) of 52.5%. It also gave an activity at 0.1 µM [7] of 47.1%, an activity at 0.1 µM [8] of 61.2% and an activity at 1 µM [5] of 87.1%. It also gave an activity at 1 µM [6] of 146%, an activity at 1 µM (24 h, read-out: cm.bpm.24hrs) of 103% and an activity at 1 µM [7] of 104%. It also gave an activity at 1 µM [8] of 118%, an activity at 10 µM [5] of 110% and an activity at 10 µM [6] of 106%. It also gave an activity at 10 µM (24 h, read-out: cm.bpm.24hrs) of 110%, an activity at 10 µM [7] of 98.5% and an activity at 10 µM [8] of 128%. It also gave an activity at 100 µM [5] of 0%, an activity at 100 µM [6] of 0% and an activity at 100 µM (24 h, read-out: cm.bpm.24hrs) of 0%. It also gave an activity at 100 µM [7] of 0% and an activity at 100 µM [8] of 0%.

For `Oc1cc(Cl)cc(-c2cccc(Cl)c2)c1` [5-OH-PCB 11], the “effect on Ca2+ flux” value (iPSC-CM, 100 μM, because of loss of cell viability) was “complete block of Ca^2+ flux”.

With `COc1ccc(-c2cccc(Cl)c2)cc1Cl` [4-OMe PCB11] the activity at 0.01 µM [1] was 85.7%, the activity at 0.01 µM [2] was 106% and the activity at 0.01 µM (1.5 h, read-out: cm.bpm.90min) was 99.1%. The activity at 0.01 µM [3] was 99.7%, the activity at 0.01 µM [4] was 111% and the activity at 0.1 µM [1] was 97.2%. For the same molecule, the activity at 0.1 µM [2] was 98.8%, the activity at 0.1 µM (1.5 h, read-out: cm.bpm.90min) was 105% and the activity at 0.1 µM [3] was 99.7%. It also gave an activity at 0.1 µM [4] of 106%, an activity at 1 µM [1] of 106% and an activity at 1 µM [2] of 101%. The activity at 1 µM (1.5 h, read-out: cm.bpm.90min) was 96.5%, the activity at 1 µM [3] was 101% and the activity at 1 µM [4] was 145%. It also gave an activity at 10 µM [1] of 94.1%, an activity at 10 µM [2] of 109% and an activity at 10 µM (1.5 h, read-out: cm.bpm.90min) of 127%. For the same molecule, the activity at 10 µM [3] was 94%, the activity at 10 µM [4] was 102% and the activity at 100 µM [1] was 0%. For the same molecule, the activity at 100 µM [2] was 0%, the activity at 100 µM (1.5 h, read-out: cm.bpm.90min) was 0% and the activity at 100 µM [3] was 0%. It also gave an activity at 100 µM [4] of 0%, an activity at 0.01 µM [5] of 121% and an activity at 0.01 µM [6] of 82.2%. The activity at 0.01 µM (24 h, read-out: cm.bpm.24hrs) was 110%, the activity at 0.01 µM [7] was 94.8% and the activity at 0.01 µM [8] was 108%. It also gave an activity at 0.1 µM [5] of 79.3%, an activity at 0.1 µM [6] of 98.7% and an activity at 0.1 µM (24 h, read-out: cm.bpm.24hrs) of 103%. The activity at 0.1 µM [7] was 98.9%, the activity at 0.1 µM [8] was 101% and the activity at 1 µM [5] was 107%. For the same molecule, the activity at 1 µM [6] was 95.6%, the activity at 1 µM (24 h, read-out: cm.bpm.24hrs) was 90.7% and the activity at 1 µM [7] was 111%. The activity at 1 µM [8] was 98.4%, the activity at 10 µM [5] was 92.1% and the activity at 10 µM [6] was 119%. The activity at 10 µM (24 h, read-out: cm.bpm.24hrs) was 123%, the activity at 10 µM [7] was 109% and the activity at 10 µM [8] was 118%. The activity at 100 µM [5] was 0%, the activity at 100 µM [6] was 0% and the activity at 100 µM (24 h, read-out: cm.bpm.24hrs) was 0%. It also gave an activity at 100 µM [7] of 0% and an activity at 100 µM [8] of 0%.
